Earlier results in patent US10695318B2, “Methods and compositions for improving cognitive function” (MARS, Incorporated, priority 2006, dated 2020).

Tested on: global CBF
Settings: inhalation of 5% C02 as vasodilative stimulus

For O=C=O [C02], the “global CBF increases” value is given as “approximately 87%”.
